# How the values were obtained:
# [1] = target: T1, Proteasome subunit beta type-5 (Homo sapiens, UniProt P28074); assay: Proteasome Activity Inhibition
# T1 sequence (P28074 whole entry): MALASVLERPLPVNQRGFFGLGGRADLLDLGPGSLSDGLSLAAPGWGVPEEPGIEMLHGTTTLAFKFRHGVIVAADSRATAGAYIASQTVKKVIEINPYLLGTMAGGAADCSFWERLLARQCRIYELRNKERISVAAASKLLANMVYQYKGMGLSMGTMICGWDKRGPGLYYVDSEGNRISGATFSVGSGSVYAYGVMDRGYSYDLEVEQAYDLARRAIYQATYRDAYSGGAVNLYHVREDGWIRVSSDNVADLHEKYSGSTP
# Procedure: (§1) RPMI8226 cells, which is a multiple myeloma cell line, were cultured and then separated by a centrifuge, and washed twice with phosphate buffered saline (PBS). 20 mM of a tris-HCl (pH 8.0) buffer solution was added to the washed cells, and the cells were disrupted by a homogenizer and centrifuged to obtain S26 protein from the supernatant. Suc-Leu-Leu-Val-Tyr-AMC, for a fluorogenic substrate for the chymotrypsin-like activity of the proteasome, and Z-Leu-Leu-Glu-AMC, for a fluorogenic substrate for the caspase-like activity, were purchased from Calbiochem, EMD Millipore and used. Into each well of a 96-well plate (opaque, black round bottom), 20 ul of the S26 protein (final RPMI8226 cell extract concentration: 2 ug/well), 10 ul of S26 proteasome inhibitor serially diluted from 10 uM (final DMSO concentration: 0.5%), and 20 ul of the fluorogenic substrate for the proteasome chymotrypsin-like or caspase-like activity (final concentration: 20 uM) were added and mixed and allowed to react in a 37° C. incubator for 90 minutes. The fluorescence of the fluorogenic substrate was measured by FlexStation II Fluorometer (Molecular Devices). The fluorescence inhibited by the compound diluted at each concentration was measured as the relative percentage value for the amount obtained from the treatment only with the S26 protein and the fluorogenic substrate.
# [2] = target: T2, Proteasome subunit beta type-6 (Homo sapiens, UniProt P28072); assay: Proteasome Activity Inhibition
# T2 sequence (P28072 whole entry): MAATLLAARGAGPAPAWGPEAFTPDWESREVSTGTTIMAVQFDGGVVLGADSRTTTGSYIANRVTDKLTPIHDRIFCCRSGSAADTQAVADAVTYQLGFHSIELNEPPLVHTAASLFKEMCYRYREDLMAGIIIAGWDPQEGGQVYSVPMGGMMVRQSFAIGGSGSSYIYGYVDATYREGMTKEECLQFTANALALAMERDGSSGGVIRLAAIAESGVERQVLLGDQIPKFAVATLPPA
# Procedure: as §1
Structure (SMILES),IC50 [1] [nM],IC50 [2] [nM]
"COc1ccc(Cl)cc1-c1cccc(C2=NOC(Cc3ccccc3)(C(=O)N[C@@H](CC(C)C)B(O)O)C2)c1 (stereo partly drawn) [US12570675, Example 35]",< 500,–
"CC[C@H](NC(=O)C1(Cc2ccccc2)CC(CNC(=O)c2ccccc2)=NO1)B(O)O (stereo partly drawn) [US12570675, Example 293]",< 25,> 500
"CC(C)C[C@H](NC(=O)C1(Cc2ccccc2)CC(CNC(=O)c2cn(C(C)C)c3ccccc23)=NO1)B(O)O (stereo partly drawn) [US12570675, Example 209]",< 10,–

# Further lines, results first:
IC50 [1] [nM],IC50 [2] [nM],Structure (SMILES)
< 250,–,"CC(C)C[C@H](NC(=O)C1CC(CNc2ccccn2)=NO1)B(O)O (stereo partly drawn) [US12570675, Example 60]"
< 50,–,"CC(C)C[C@H](NC(=O)C1CC(CNC(=O)C2Cc3ccccc3C2)=NO1)B(O)O (stereo partly drawn) [US12570675, Example 78]"
< 25,> 500,"CC(C)C[C@H](NC(=O)C1CC(CNC(=O)C2CCCc3ccccc32)=NO1)B(O)O (stereo partly drawn) [US12570675, Example 80]"

# — BindingDB's records for patent US12570675 (LG Chem, 2026)
